Assay results: patent US10328161B2, “Luciferin derivatives from bicyclic reactants and aminothiol derivatives and methods of use thereof” (The Regents of the University of California, priority 2012, dated 2019)

Assays:
[1] = Exogenous H2O2 experiments in mice; type: in vivo; settings: for Turn-on: PCL-1 0.5 μmol
Description: (§1) A Xenogen IVIS Spectrum instrument (Caliper Life Sciences, Hopkinton, Mass.) was used for bioluminescent imaging in all animal experiments. Mice were anesthetized prior to injection and during imaging via inhalation of isoflurane. Phosphate Buffered Saline (PBS) was purchased from Thermo Fisher Scientific (Waltham, Mass.), and saline (0.9%) was made from sodium chloride and Millipore water. Isoflurane was purchased from Phoenix Pharmaceuticals, Inc. (St. Joseph, Mo.), and pharmaceutical grade DMSO was purchased from Sigma-Aldrich (St. Louis, Mo.). Medical grade oxygen was purchased from Praxair (Danbury, Conn.).
(§2) FVB-luc^+ (FVB-Tg(CAG-luc,-GFP)L2G85Chco/J) mice were bred at UC Berkeley, and were single or group-housed on a 12:12 light-dark cycle at 22° C. with free access to food and water. All studies were approved and performed according to the guidelines of the Animal Care and Use Committee of the University of California, Berkeley.
Unshaven, male FVB-luc^+ mice were anesthetized with isoflurane and injected IP with a mixture of PCL-2 and D-cysteine (0.05 μmol each, in 50 μL of 1:1 DMSO:PBS), followed immediately by an IP injection of H2O2 (0-4.5 μmol in 100 μL of PBS). Control mice were injected IP with a mixture of HCBT and D-cysteine (0.01 μmol each, in 50 μL of 1:1 DMSO:PBS) immediately prior to H2O2 (4.5 μmol in 100 μL of PBS). Following injections, mice were imaged with an IVIS Spectrum.

[2] = molecular target: T1, caspase 8 (Homo sapiens, UniProt Q14790); experiment: Selectivity assay for IETDC: caspase 8; type: biochemical
T1 construct: purchased Sigma-Aldrich
T1 sequence (Q14790 217-374 limits assumed, species assumed): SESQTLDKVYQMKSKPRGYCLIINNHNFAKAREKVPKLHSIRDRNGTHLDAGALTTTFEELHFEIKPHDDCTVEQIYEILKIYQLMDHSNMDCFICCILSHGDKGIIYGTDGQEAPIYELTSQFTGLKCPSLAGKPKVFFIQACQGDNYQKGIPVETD
T1 sequence (Q14790 385-479 limits assumed, species assumed): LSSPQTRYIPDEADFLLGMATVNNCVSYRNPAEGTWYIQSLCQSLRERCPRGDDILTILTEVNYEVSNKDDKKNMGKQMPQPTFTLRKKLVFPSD
Procedure: (§3) Millipore water was used to prepare all aqueous solutions. Luciferase (100 μg/mL) in 50 mM Tris buffer, pH 7.4, with 10 mM MgCl2, 0.1 mM ZnCl2, and 2 mM ATP was added to selectivity assay samples (described below) to determine the relative amount of luciferin formed during incubation. Measurements for bioluminescent assays were performed at 37° C. and were recorded using a Molecular Devices SpectraMax M2 plate reader (Sunnyvale, Calif.). Samples for bioluminescent measurements were placed in white, opaque 96-well plates, which were purchased from Corning Inc. (Corning, N.Y.). ATP was purchased from MP Biomedicals (Solon, Ohio) or Sigma-Aldrich (St. Louis, Mo.), and luciferase was purchased from Promega (Madison, Wis.). Caspase enzymes were purchased from Sigma-Aldrich (St. Louis, Mo.), and caspase inhibitors were purchased from MP Biomedicals (Solon, Ohio).
For determination of caspase selectivity, various caspases (3 and 8:1 unit, 9:0.001 unit) were administered to IETDC or D-cysteine (5 μM) in Tris buffer (50 mM, pH 7.4). […] After each enzyme was incubated with IETDC or D-cysteine for 60 min, 100 μL of a Tris buffer (50 mM, pH 7.4) containing luciferase (100 μg/mL), 10 mM MgCl2, 0.1 mM ZnCl2, and 2 mM ATP was added to 100 μL of the IETDC or D-cysteine solutions and the bioluminescent signal was detected.

[3] = Selectivity assays for dual H2O2 and caspase 8 detection in vitro; type: biochemical; settings: for effect of a single inhibitor on the dual-analyte signal: catalase 1 unit or Q-VD-OPh 10 μM, with H2O2 and caspase 8; for effect of both inhibitors together on the dual-analyte signal: catalase 1 unit plus Q-VD-OPh 10 μM combined; for interference with in situ luciferin formation from HCBT and D-cysteine: catalase 1 unit, Q-VD-OPh 10 μM
Procedure: as §3
To quench H2O2 immediately, catalase (1 unit) was subsequently added to some of the solutions. After 60 min, catalase (1 unit) was added to all other solutions containing H2O2 to quench any remaining H2O2. Subsequently, caspase 8 (1 unit) was added to the solutions in the presence or absence of the caspase inhibitor, Q-VD-OPh (10 μM), 15 min prior to IETDC (10 μM) or D-cysteine (5 μM) addition. Following IETDC or D-cysteine addition, the solutions were incubated for 60 min. Additionally, dithiothreitol (1 mM) was added to all solutions at the time of caspase 8 addition to maintain the reduced state of the D-cysteine. To monitor luciferin formation, 100 μL of a Tris buffer (50 mM, pH 7.4) containing luciferase (100 μg/mL), 10 mM MgCl2, 0.1 mM ZnCl2, and 2 mM ATP was added to 100 μL of the PCL-2/IETDC or HCBT/D-cysteine solutions and the bioluminescent signal was detected.

[4] = Lipopolysaccharide inflammation model, H2O2 detection with PCL-2; type: in vivo, mice; settings: apocynin 10 mg/kg IP, LPS-treated mice
Description: as §1, §2
Unshaven, female FVB-luc^+ mice, aged 2-5 months, were anesthetized with isoflurane and injected IP with lipopolysaccharides (LPS, 3 mg/kg in 50 μL of saline) or saline (50 μL). For studies with PCL-2 alone, mice were injected IP with either apocynin (10 mg/kg in 20 μL of DMSO) or DMSO (20 μL) 6 h after LPS injection. […]

[5] = test system: FVB-luc^+ mice; experiment: Control: effect of inhibitors and antioxidants on HCBT and D-cysteine luciferin signal in mice; type: in vivo
Procedure: (a) Total photon fluxes, 0-15 min post-injection, for mice (n=3) injected with apocynin (IP, 10 mg/kg in 20 μL DMSO) or vehicle (IP, 20 μL DMSO) two min prior to injections of a mixture of HCBT and D-cysteine (IP, 0.01 μmol each, in 50 μL of 1:1 DMSO:PBS). (b) Total photon fluxes, 15-45 min post-injection, for mice (n=3) injected with z-VD(OMe)-OPh (IP, 1 μmol in 20 μL DMSO) or vehicle (IP, 20 μL DMSO) 30 min prior to injections of a mixture of HCBT and D-cysteine (IP, 0.01 μmol each, in 50 μL of 1:1 DMSO:PBS). Error bars are ±SEM.
FIG. 18 depicts bioluminescent signals from HCBT and D-cysteine with ascorbic acid in FVB-luc^+ mice. Total photon fluxes, 30-60 min post-injection, for mice (n=3-4) injected with ascorbic acid (IP, 200 mg/kg in 30 μL saline) or vehicle (IP, 30 μL saline) 4.5 h prior to injections of a mixture of HCBT and D-cysteine (IP, 0.01 μmol each, in 50 μL of 1:1 DMSO:PBS). Error bars are ±SEM.

[6] = test system: H2O2 and caspase 8; experiment: Lipopolysaccharide inflammation model, dual detection with PCL-2 and IETDC; type: in vivo; settings: ascorbic acid 200 mg/kg and z-VD-OPh 1 μmol used together, LPS-treated mice
Description: as §1, §2
For studies with PCL-2 and IETDC, mice were injected IP with ascorbic acid (200 mg/kg in 30 μL of saline) or the saline vehicle (30 μL) 30 min prior to IP injection of LPS (3 mg/kg in 50 μL of saline) or saline (50 μL). Two hours after injection of LPS, z-VD(OMe)-OPh (1 μmol in 20 μL of DMSO) or the vehicle, DMSO (20 μL), was injected IP. […]

[7] = test system: PC3M-luc cells; experiment: Comparison of in situ luciferin formation and luciferin in PC3M-luc cells (intact and lysed); type: cell-based; settings: inferred from intact versus lysed PC3M-luc cells
Procedure: (§4) A Xenogen IVIS Spectrum instrument (Caliper Life Sciences, Hopkinton, Mass.) was used for bioluminescent imaging in all cellular experiments. PC3M-luc cells (kindly provided by Chris Contag, Stanford University) were cultured in Dulbecco's Modified Eagle Medium (DMEM) containing 10% Fetal Bovine Serum (FBS). Prior to assaying, cells were passed and plated (1.3-1.5×10^4 cells/well) in black 96-well plates with clear bottoms (Becton Dickinson and Company, Franklin Lakes, N.J.). Once the cells were ca. 95% confluent, reagents were added for bioluminescent assays.
PC3M-luc cells prepared as described above were washed with HBSS (25 mM glucose) prior to addition of HCBT and D-cysteine (0-500 μM, 1% DMSO) or luciferin (0-500 μM, 1% DMSO) in HBSS (25 mM glucose). For experiments with lysed cells, 100 μL Glo lysis buffer (Promega, Madison, Wis.) was incubated with the PC3M-luc cells for 5 min prior to addition of HCBT and D-cysteine or luciferin. The plates were immediately imaged for 2 h to determine the peak bioluminescent signal produced.

[8] = test system: PC3M-luc cells; experiment: Lifetime of HCBT and D-cysteine in PC3M-luc cells; type: cell-based; settings: 100 μM, 30 min incubation, wash, complementary reagent after 0-60 min
Procedure: as §4
The medium was removed from PC3M-luc cells prepared as described above, and HCBT (100 μM, 1% DMSO) or D-cysteine (100 μM, 1% PBS) in DMEM (-FBS) was added. After a 30 min incubation, the HCBT or D-cysteine was removed, the cells were washed with DMEM (-FBS), and fresh DMEM was added. After 0, 15, 30, 45, or 60 min, the second component of luciferin, D-cysteine (100 μM final concentration, 1% PBS) or HCBT (100 μM final concentration, 1% DMSO) in HBSS (25 mM glucose) was added, and the plate was immediately imaged for 2 h to determine the peak bioluminescent signal produced.

[9] = Selectivity assay for PCL-2: response to H2O2; type: biochemical; settings: H2O2 100 μM and catalase 0.4 mg/mL
Procedure: as §3
Various ROS (100 μM) were administered to PCL-2 or HCBT (5 μM) in Tris buffer (50 mM, pH 7.4) with or without 10 mM MgCl2 and 0.1 mM ZnCl2. […] After an additional 15 min incubation, 100 μL of a Tris buffer (50 mM, pH 7.4) containing luciferase (100 μg/mL), 10 mM MgCl2, 0.1 mM ZnCl2, and 2 mM ATP was added to 100 μL of the PCL-2 or HCBT solutions and the bioluminescent signal was detected.

O=C(O)[C@H]1CSC(c2nc3ccc(OCc4ccc(B(O)O)cc4)cc3s2)=N1 [PCL-1]
Turn-on ([1]; H2O2 0.037 μmol): 1.5-fold
Turn-on ([1]; H2O2 0.15 μmol): 2.0-fold
Turn-on ([1]; H2O2 0.6 μmol): 2.7-fold
detection limit for H2O2 in vivo ([1]; IP, FVB-luc^+ mice, optimized imaging conditions for each probe): 0.037 µmol

CC(C)[C@H](NC(=O)c1ccc2ccccc2n1)C(=O)N[C@@H](CC(=O)O)C(=O)COc1c(F)cccc1F [Q-VD-OPh]
effect of caspase inhibitor on the response of IETDC to caspase 8 ([2]; Q-VD-OPh 10 μM): complete attenuation
effect of a single inhibitor on the dual-analyte signal [3]: attenuated the increase in signal
effect of both inhibitors together on the dual-analyte signal [3]: complete attenuation of signal
interference with in situ luciferin formation from HCBT and D-cysteine [3]: did not interfere with in situ luciferin formation

COc1cc(C(C)=O)ccc1O [apocynin]
reduction in PCL-2 signal upon treatment [4]: 55%
effect on the luciferin signal from HCBT and D-cysteine in vivo ([5]; apocynin 10 mg/kg or z-VD-OPh 1 μmol IP, HCBT and D-cysteine 0.01 μmol each): do not alter the luciferin signal

O=C1O[C@H]([C@@H](O)CO)C(O)=C1O [ascorbic acid]
decrease in dual-probe bioluminescent signal [6]: 30%
effect on the bioluminescent signal from HCBT and D-cysteine ([5]; ascorbic acid 200 mg/kg IP 4.5 h before HCBT and D-cysteine 0.01 μmol each): did not impact the bioluminescent signal

N[C@H](CS)C(=O)O [D-cysteine]
permeability across the cell membrane compared to luciferin [7]: increased permeability
cellular lifetime: signal as time between removal and addition of the complementary reagent increases [8]: still fully available for reaction with HCBT
change in bioluminescent signal on incubation with caspase enzymes ([2]; D-cysteine 5 μM with HCBT, caspases 8, 3, 9): no change in bioluminescent signal

catalase
effect of catalase on the H2O2 turn-on signal of PCL-2 [9]: attenuated
effect of a single inhibitor on the dual-analyte signal [3]: attenuated the increase in signal
effect of both inhibitors together on the dual-analyte signal [3]: complete attenuation of signal
interference with in situ luciferin formation from HCBT and D-cysteine [3]: did not interfere with in situ luciferin formation
